In publication PMC12863195 (2026) one finds binding, Kd and K0.5 data, which are given here for 4 molecules.

For assay [1], the system named is R1 (MG RNA aptamer) (RNA, aptamer) GGAUCCCGACUGGCGAGAGCCAGGUAACGAAUGGAUCC
The assay is described as follows: fluorescence (ex 632 nm, em 650 nm). Conditions: Mg2+ 20 mM (MgCl2); 1×RNAPol reaction buffer, 5 mM DTT, 2 µM MG, 35 °C, during transcription.

Assay [2] deals with Gm/Hm (DNA, aptamer) AGGGTGGTGGCGAAAGCACACCGATGGCGGTCCTGTAGGT/ACCTTTAGGGGGTGTGCAAACGCCTAGGTTGGGT
Description: thrombin coagulation inhibition, light scattering. Conditions: 1 µM Gm/Hm, 5 nM thrombin, 10 mg/ml fibrinogen, 10-1000 µM Mel, 25 °C.

Assay [3] concerns Split Mel aptamer – 4nt (DNA, aptamer) GCACACCGATGGCGGTCCTGTAGGT/ACCTTTAGGGGGTGTGC
Description: ITC. Particulars: Mg2+ 40 mM (MgCl2); 20 mM Tris acetate pH 7.9, 25 °C; one set of sites fit.

The subject of assay [4] is Nm/Tm/Pm (DNA, aptamer) TAATACGACTCACTATAGGGATCCCGACTGGCGAGAGCCAGGTAACGAATGGATCC/GGATCCATTCGTTACCTGGCTCTCGCCAGTCGGGATCCCTATAGTGAGTCTTAGGGGGTGTGC/GCACACCGATGGCGGTCCTGTGTATTA
Description: transcription activation, MG aptamer fluorescence. Conditions: Mg2+ 20 mM (MgCl2); 1×RNAPol reaction buffer, 0.2 µM strands, 0.125-2 mM Mel, 35 °C.

Assay [5] relates to Intact Mel aptamer (DNA, aptamer) GCACACCGATGGCGGTCCTGTTTAGGGGGTGTGC
Description: ITC. Particulars: Mg2+ 40 mM (MgCl2); 20 mM Tris acetate pH 7.9, 25 °C; one set of sites fit.

Assay [6] deals with Split Mel aptamer – 0nt (DNA, aptamer) GCACACCGATGGCGGTCCTGT/TTAGGGGGTGTGC
The assay is described as follows: ITC. Conditions: Mg2+ 40 mM (MgCl2); 20 mM Tris acetate pH 7.9, 25 °C; poorly defined fit (ΔH -335 ±751 kJ/mol).

Assay [7] has as its system Dm/Em (DNA, aptamer) CTGTTCAGCGATGCACACCGATGGCGGTCCTGTAGGT/ACCTTTAGGGGGTGTGCCACCCATGTTCCTGA
Description: DNAzyme cleavage of FAM/BHQ1 substrate, fluorescence. Conditions: Mg2+ 40 mM (MgCl2); apparent; 20 mM Tris acetate pH 7.9, 1 µM each strand, 1 µM substrate S, BSA.

The test system of assay [8] is Split Ade aptamer – 3nt (Ga/Ha; d1/c/t1+d2/c'/t2) (DNA, aptamer) AGGGTGGTGGCGAACTGCGGAGGAAGGT/ACCTGGGGGAGTATGATCGCCTAGGTTGGGT
The assay is described as follows: stated; ADA-driven loss of thrombin inhibition. Conditions: adenosine 1.25-1.8 mM converted by ADA.

The subject of assay [9] is Split Ade aptamer – 0nt (d1/t1+d2/t2) (DNA, aptamer) AGGGTGGTGGCGTGCGGAGGAAGGT/ACCTGGGGGAGTATCGCCTAGGTTGGGT
The assay is described as follows: ITC. Conditions: Mg2+ 40 mM (MgCl2); 40 mM Tris acetate pH 7.9, 25 °C; one set of sites fit.

In assay [10] the test system is Split Ade aptamer – 3nt (Ga/Ha; d1/c/t1+d2/c'/t2) (DNA, aptamer) AGGGTGGTGGCGAACTGCGGAGGAAGGT/ACCTGGGGGAGTATGATCGCCTAGGTTGGGT
Description: ITC. Conditions: Mg2+ 40 mM (MgCl2); 40 mM Tris acetate pH 7.9, 25 °C; one set of sites fit.

Assay [11] relates to Na/Ta/Pa (DNA, aptamer) ACCTGGGGGAGTATTAATACGACTCACTATAGGGTTCTCCTCTGCGTTGTTGTTTG/CAAACAACAACGCAGAGGAGAACCCTATAGTGAGTCG/TATTATGCGGAGGAAGGT
Description: transcription activation, F/Q strand displacement fluorescence. Conditions: Mg2+ 20 mM (MgCl2); 1×RNAPol reaction buffer, 0.2 µM strands, 0.125-2 mM Ade, 33 °C.

Consider `CN(C)c1ccc(C(=C2C=CC(=[N+](C)C)C=C2)c2ccccc2)cc1`, for which the binding result in [1] is reported as “yes”.
A word on the Kd: it is a measure of binding affinity in units of concentration. On to `Nc1nc(N)nc(N)n1`, for which the binding entry in assay [2] and in assay [4] was “yes” in each case. Also, the Kd in [3] worked out at 0.890 ± 0.123 µM; in [5] it was 0.800 ± 0.139 µM; in assay [6], 11.1 ± 2.09 µM. Moreover, in [7], the K0.5 is recorded as 162 ± 4.8 µM.
As to `O=c1[nH]cnc2c1ncn2[C@@H]1O[C@H](CO)[C@@H](O)[C@H]1O`, the binding result in assay [8] is on record as “no”.
`Nc1ncnc2c1ncn2[C@@H]1O[C@H](CO)[C@@H](O)[C@H]1O`: the Kd in [9] was 14.1 ± 1.3 µM; in assay [10], 7.28 ± 0.82 µM. Further, the binding entry in assay [11] is recorded as “yes”.
